Reference: patent US9931327B2, “Derivatives of 1-phenyl-2-pyridinyl alkyl alcohols as phosphodiesterase inhibitors” (Chiesi Farmaceutici S.p.A., priority 2011, dated 2018)
Counter-ions that a name gives are not always drawn.

What follows are molecules tested on LPS-induced TNF-α release in peripheral blood mononuclear cells (PBMCs) (assay: In vitro determination of PDE4 inhibitory activity in the PBMCs assay (LPS-induced TNF-α release)). Details: Homo sapiens, PBMC, 18 h, read-out: PDE4 inhibition (IC50, 50% inhibition of LPS-induced TNF-α release).
Type: cell-based, human
Procedure, shortened: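 Cryopreserved human PBMCs (10^5 cells/well) pre-incubated 30 min with compound (10^−12 to 10^−6 M or 10^−3 to 10^−7 M), then stimulated with LPS 3 ng/ml for 18 h at 37 °C. TNF-α in medium by ELISA; IC50 as mean ± 95% confidence limits.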
Work on `Nc1ccc(S(=O)(=O)N2CCS[C@@H]2C(=O)O[C@@H](Cc2c(Cl)c[n+]([O-])cc2Cl)c2ccc(OC(F)F)c(OCC3CC3)c2)cc1` [Compound 151, 4-((S)-2-((R)-3-(4-aminophenylsulfonyl)thiazolidine-2-carbonyloxy)-2-(3-(cyclopropylmethoxy)-4-(difluoromethoxy)phenyl)ethyl)-3,5-dichloropyridine 1-oxide] yielded an IC50 of 0.1 to 1 nM.

Same assay, conditions: PBMC; human PBMCs, LPS 3 ng/ml, 18 hours, TNF-α by ELISA; read-out: PDE4 inhibition (IC50, 50% inhibition of LPS-induced TNF-α release)
For `COc1ccc(S(=O)(=O)N2CCC[C@H]2C(=O)O[C@@H](Cc2c(Cl)c[n+]([O-])cc2Cl)c2ccc(OC(F)F)c(OCC3CC3)c2)cc1C(=O)N(C)C` [Compound 124, 3,5-dichloro-4-((S)-2-(3-(cyclopropylmethoxy)-4-(difluoromethoxy)phenyl)-2-((S)-1-(3-(dimethylcarbamoyl)-4-methoxyphenylsulfonyl)pyrrolidine-2-carbonyloxy)ethyl)pyridine 1-oxide], the IC50 was < 0.1 nM. `CN(C)C(=O)c1ccc(S(=O)(=O)N2CCSC2C(=O)O[C@@H](Cc2c(Cl)c[n+]([O-])cc2Cl)c2ccc(OC(F)F)c(OCC3CC3)c2)cc1` (stereo partly drawn) [Compound 125, 3,5-dichloro-4-((2S)-2-(3-(cyclopropylmethoxy)-4-(difluoromethoxy)phenyl)-2-(3-(4-(dimethylcarbamoyl)phenylsulfonyl)thiazolidine-2-carbonyloxy)ethyl)pyridine 1-oxide] showed an IC50 of 0.1 to 1 nM. In the case of `CN1CCN(C(=O)c2ccc(S(=O)(=O)N3CCSC3C(=O)O[C@@H](Cc3c(Cl)c[n+]([O-])cc3Cl)c3ccc(OC(F)F)c(OCC4CC4)c3)cc2)CC1` (stereo partly drawn) [Compound 126, 3,5-dichloro-4-((2S)-2-(3-(cyclopropylmethoxy)-4-(difluoromethoxy)phenyl)-2-(3-(4-(4-methylpiperazine-1-carbonyl)phenylsulfonyl)thiazolidine-2-carbonyloxy)ethyl)pyridine 1-oxide], the IC50 is reported as 0.1 to 1 nM. Work on `COc1ccc(S(=O)(=O)N2CCSC2C(=O)O[C@@H](Cc2c(Cl)c[n+]([O-])cc2Cl)c2ccc(OC(F)F)c(OCC3CC3)c2)cc1C(=O)N1CCN(C)CC1` (stereo partly drawn) [Compound 127, 3,5-dichloro-4-((2S)-2-(3-(cyclopropylmethoxy)-4-(difluoromethoxy)phenyl)-2-(3-(4-methoxy-3-(4-methylpiperazine-1-carbonyl)phenylsulfonyl)thiazolidine-2-carbonyloxy)ethyl)pyridine 1-oxide] yielded an IC50 of 0.1 to 1 nM. `COc1ccc(S(=O)(=O)N2CCSC2C(=O)O[C@@H](Cc2c(Cl)c[n+]([O-])cc2Cl)c2ccc(OC(F)F)c(OCC3CC3)c2)cc1C(=O)N1CCOCC1` (stereo partly drawn) [Compound 128, 3,5-dichloro-4-((2S)-2-(3-(cyclopropylmethoxy)-4-(difluoromethoxy)phenyl)-2-(3-(4-methoxy-3-(morpholine-4-carbonyl)phenylsulfonyl)thiazolidine-2-carbonyloxy)ethyl)pyridine 1-oxide] was tested, and the IC50 was < 0.1 nM. For `COc1ccc(S(=O)(=O)N2CCCC[C@H]2C(=O)O[C@@H](Cc2c(Cl)c[n+]([O-])cc2Cl)c2ccc(OC(F)F)c(OCC3CC3)c2)cc1C(=O)N(C)C` [Compound 129, 3,5-dichloro-4-((S)-2-(3-(cyclopropylmethoxy)-4-(difluoromethoxy)phenyl)-2-((S)-1-(3-(dimethylcarbamoyl)-4-methoxyphenylsulfonyl)piperidine-2-carbonyloxy)ethyl)pyridine 1-oxide], the IC50 was < 0.1 nM. For `CN1CCN(C(=O)c2cccc(S(=O)(=O)N3CCSC3C(=O)O[C@@H](Cc3c(Cl)c[n+]([O-])cc3Cl)c3ccc(OC(F)F)c(OCC4CC4)c3)c2)CC1` (stereo partly drawn) [Compound 130, 3,5-dichloro-4-((2S)-2-(3-(cyclopropylmethoxy)-4-(difluoromethoxy)phenyl)-2-(3-(3-(4-methylpiperazine-1-carbonyl)phenylsulfonyl)thiazolidine-2-carbonyloxy)ethyl)pyridine 1-oxide], the IC50 was < 0.1 nM. For `COc1ccc(S(=O)(=O)N2CCS[C@H]2C(=O)O[C@@H](Cc2c(Cl)c[n+]([O-])cc2Cl)c2ccc(OC(F)F)c(OCC3CC3)c2)cc1C(=O)N(C)C` [Compound 131, 3,5-dichloro-4-((S)-2-(3-(cyclopropylmethoxy)-4-(difluoromethoxy)phenyl)-2-((S)-3-(3-(dimethylcarbamoyl)-4-methoxyphenylsulfonyl)thiazolidine-2-carbonyloxy)ethyl)pyridine 1-oxide], the IC50 was < 0.1 nM. With `CN1CCN(C(=O)c2cccc(S(=O)(=O)N3CCS[C@H]3C(=O)O[C@@H](Cc3c(Cl)c[n+]([O-])cc3Cl)c3ccc(OC(F)F)c(OCC4CC4)c3)c2)CC1` [Compound 132, 3,5-dichloro-4-((S)-2-(3-(cyclopropylmethoxy)-4-(difluoromethoxy)phenyl)-2-((S)-3-(3-(4-methylpiperazine-1-carbonyl)phenylsulfonyl)thiazolidine-2-carbonyloxy)ethyl)pyridine 1-oxide] the IC50 was < 0.1 nM. Molecule `Nc1ccc(S(=O)(=O)N2CCSC2C(=O)O[C@@H](Cc2c(Cl)c[n+]([O-])cc2Cl)c2ccc(OC(F)F)c(OCC3CC3)c2)cc1` (stereo partly drawn) [Compound 135, 4-((2S)-2-(3-(4-aminophenylsulfonyl)thiazolidine-2-carbonyloxy)-2-(3-(cyclopropylmethoxy)-4-(difluoromethoxy)phenyl)ethyl)-3,5-dichloropyridine 1-oxide] has an IC50 of 0.1 to 1 nM. For `Nc1ccc(S(=O)(=O)N2CCC[C@H]2C(=O)O[C@@H](Cc2c(Cl)c[n+]([O-])cc2Cl)c2ccc(OC(F)F)c(OCC3CC3)c2)cc1` [Compound 136, 4-((S)-2-((S)-1-(4-aminophenylsulfonyl)pyrrolidine-2-carbonyloxy)-2-(3-(cyclopropylmethoxy)-4-(difluoromethoxy)phenyl)ethyl)-3,5-dichloropyridine 1-oxide], the IC50 was 0.1 to 1 nM. Work on `COc1ccc(S(=O)(=O)N2CCSC2C(=O)O[C@@H](Cc2c(Cl)c[n+]([O-])cc2Cl)c2ccc(OC(F)F)c(OCC3CC3)c2)cc1N` (stereo partly drawn) [Compound 137, 4-((2S)-2-(3-(3-amino-4-methoxyphenylsulfonyl)thiazolidine-2-carbonyloxy)-2-(3-(cyclopropylmethoxy)-4-(difluoromethoxy)phenyl)ethyl)-3,5-dichloropyridine 1-oxide] yielded an IC50 of 0.1 to 1 nM. With `Nc1ccc(S(=O)(=O)N2CSC[C@H]2C(=O)O[C@@H](Cc2c(Cl)c[n+]([O-])cc2Cl)c2ccc(OC(F)F)c(OCC3CC3)c2)cc1` [Compound 138, 4-((S)-2-((R)-3-(4-aminophenylsulfonyl)thiazolidine-4-carbonyloxy)-2-(3-(cyclopropylmethoxy)-4-(difluoromethoxy)phenyl)ethyl)-3,5-dichloropyridine 1-oxide] the IC50 was 0.1 to 1 nM. In the case of `Nc1ccc(S(=O)(=O)N2CCOC(C(=O)O[C@@H](Cc3c(Cl)c[n+]([O-])cc3Cl)c3ccc(OC(F)F)c(OCC4CC4)c3)C2)cc1` (stereo partly drawn) [Compound 139, 4-((2S)-2-(4-(4-aminophenylsulfonyl)morpholine-2-carbonyloxy)-2-(3-(cyclopropylmethoxy)-4-(difluoromethoxy)phenyl)ethyl)-3,5-dichloropyridine 1-oxide], the IC50 is reported as < 0.1 nM. For `Nc1cccc(S(=O)(=O)N2CCS[C@H]2C(=O)O[C@@H](Cc2c(Cl)c[n+]([O-])cc2Cl)c2ccc(OC(F)F)c(OCC3CC3)c2)c1` [Compound 140, 4-((S)-2-((S)-3-(3-aminophenylsulfonyl)thiazolidine-2-carbonyloxy)-2-(3-(cyclopropylmethoxy)-4-(difluoromethoxy)phenyl)ethyl)-3,5-dichloropyridine 1-oxide], the IC50 was < 0.1 nM. With `Nc1ccc(S(=O)(=O)N2CCN(CC(=O)O[C@@H](Cc3c(Cl)c[n+]([O-])cc3Cl)c3ccc(OC(F)F)c(OCC4CC4)c3)CC2)cc1` [Compound 141, (S)-4-(2-(2-(4-(4-aminophenylsulfonyl)piperazin-1-yl)acetoxy)-2-(3-(cyclopropylmethoxy)-4-(difluoromethoxy)phenyl)ethyl)-3,5-dichloropyridine 1-oxide] the IC50 was 0.1 to 1 nM. In the case of `CS(=O)(=O)Nc1ccc(S(=O)(=O)N2CCSC2C(=O)O[C@@H](Cc2c(Cl)c[n+]([O-])cc2Cl)c2ccc(OC(F)F)c(OCC3CC3)c2)cc1` (stereo partly drawn) [Compound 142, 3,5-dichloro-4-((2S)-2-(3-(cyclopropylmethoxy)-4-(difluoromethoxy)phenyl)-2-(3-(4-(methylsulfonamido)phenylsulfonyl)thiazolidine-2-carbonyloxy)ethyl)pyridine 1-oxide], the IC50 is reported as 0.1 to 1 nM. Work on `CS(=O)(=O)N(CCN1CCOCC1)c1ccc(S(=O)(=O)N2CCSC2C(=O)O[C@@H](Cc2c(Cl)c[n+]([O-])cc2Cl)c2ccc(OC(F)F)c(OCC3CC3)c2)cc1` (stereo partly drawn) [Compound 143, 3,5-dichloro-4-((2S)-2-(3-(cyclopropylmethoxy)-4-(difluoromethoxy)phenyl)-2-(3-(4-(N-(2-morpholinoethyl)methylsulfonamido)phenylsulfonyl)thiazolidine-2-carbonyloxy)ethyl)pyridine 1-oxide formate] yielded an IC50 of 0.1 to 1 nM. `O=C(CN1CCSC1C(=O)O[C@@H](Cc1c(Cl)c[n+]([O-])cc1Cl)c1ccc(OC(F)F)c(OCC2CC2)c1)c1cccs1` (stereo partly drawn) [Compound 144, 3,5-dichloro-4-((2S)-2-(3-(cyclopropylmethoxy)-4-(difluoromethoxy)phenyl)-2-(3-(2-oxo-2-(thiophen-2-yl)ethyl)thiazolidine-2-carbonyloxy)ethyl)pyridine 1-oxide] gave an IC50 of 0.1 to 1 nM. With `Nc1ccc(S(=O)(=O)N2CCS[C@H]2C(=O)O[C@@H](Cc2c(Cl)c[n+]([O-])cc2Cl)c2ccc(OC(F)F)c(OCC3CC3)c2)cc1` [Compound 150, 4-((S)-2-((S)-3-(4-aminophenylsulfonyl)thiazolidine-2-carbonyloxy)-2-(3-(cyclopropylmethoxy)-4-(difluoromethoxy)phenyl)ethyl)-3,5-dichloropyridine 1-oxide] the IC50 was < 0.1 nM.
